In ChEMBL document CHEMBL1201861, “Genomics of Drug Sensitity in Cancer screening data, Wellcome Trust Sanger Institute”:

Columns and labels:
Assay in all cases: cells
MLMA = format: functional, cell-based, Homo sapiens; conditions: Homo sapiens, MLMA;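 note: growth inhibition of MLMA cells (human), determined through a cell viability readout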
Description: SANGER: Inhibition of human MLMA cell growth in a cell viability assay.

IA-LM = format: functional, cell-based, Homo sapiens; conditions: Homo sapiens, IA-LM;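 note: cell viability assay measuring growth inhibition of human IA-LM cells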
Description: SANGER: Inhibition of human IA-LM cell growth in a cell viability assay.

KARPAS-45 = format: functional, cell-based, Homo sapiens; conditions: Homo sapiens, KARPAS-45;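 note: inhibition of cell line growth, read out through a viability assay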
Description: SANGER: Inhibition of human KARPAS-45 cell growth in a cell viability assay.

GCIY = format: functional, cell-based, Homo sapiens; conditions: Homo sapiens, GCIY;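 note: growth inhibition of the human GCIY cell line, read out by a cell viability assay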
Description: SANGER: Inhibition of human GCIY cell growth in a cell viability assay.

SK-MEL-2 = format: functional, cell-based, Homo sapiens; conditions: Homo sapiens, SK-MEL-2;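 note: growth inhibition of human SK-MEL-2 cells measured with a cell viability assay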
Description: SANGER: Inhibition of human SK-MEL-2 cell growth in a cell viability assay.

LAMA-84 = format: functional, cell-based, Homo sapiens; conditions: Homo sapiens, LAMA-84;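 note: growth inhibition of LAMA-84 cells, read out with a cell viability assay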
Description: SANGER: Inhibition of human LAMA-84 cell growth in a cell viability assay.

MZ1-PC = format: functional, cell-based, Homo sapiens; conditions: Homo sapiens, MZ1-PC;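 note: cell viability assay measuring growth inhibition of human MZ1-PC cells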
Description: SANGER: Inhibition of human MZ1-PC cell growth in a cell viability assay.

MN-60 = format: functional, cell-based, Homo sapiens; conditions: Homo sapiens, MN-60;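 note: growth inhibition of the MN-60 cell line, determined with a cell viability assay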
Description: SANGER: Inhibition of human MN-60 cell growth in a cell viability assay.

BB30-HNC = format: functional, cell-based, Homo sapiens; conditions: Homo sapiens, BB30-HNC;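 note: growth inhibition of the cultured cell line, read out by a cell viability assay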
Description: SANGER: Inhibition of human BB30-HNC cell growth in a cell viability assay.

QIMR-WIL = format: functional, cell-based, Homo sapiens; conditions: Homo sapiens, QIMR-WIL;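 note: growth inhibition of QIMR-WIL cells, read out with a cell viability assay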
Description: SANGER: Inhibition of human QIMR-WIL cell growth in a cell viability assay.

SF-539 = format: functional, cell-based, Homo sapiens; conditions: Homo sapiens, SF-539;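 note: Read-out is a cell viability assay, with IC50 reflecting inhibition of cell growth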
Description: SANGER: Inhibition of human SF539 cell growth in a cell viability assay.

UACC-257 = format: functional, cell-based, Homo sapiens; conditions: Homo sapiens, UACC-257
Description: SANGER: Inhibition of human UACC-257 cell growth in a cell viability assay.

KG-1 = format: functional, cell-based, Homo sapiens; conditions: Homo sapiens, KG-1;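 note: growth inhibition of KG-1 cells, read out by a cell viability assay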
Description: SANGER: Inhibition of human KG-1 cell growth in a cell viability assay.

SBC-1 = format: functional, cell-based, Homo sapiens; conditions: Homo sapiens, SBC-1;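 note: cell viability assay measuring growth inhibition of the SBC-1 cell line, IC50 being the concentration that halves growth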
Description: SANGER: Inhibition of human SBC-1 cell growth in a cell viability assay.

DU-4475 = format: functional, cell-based, Homo sapiens; conditions: Homo sapiens, DU-4475
Description: SANGER: Inhibition of human DU-4475 cell growth in a cell viability assay.

Ramos-2G6-4C10 = format: functional, cell-based, Homo sapiens; conditions: Homo sapiens, Ramos-2G6-4C10;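 note: growth inhibition of the cell line, measured by a cell viability read-out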
Description: SANGER: Inhibition of human Ramos-2G6-4C10 cell growth in a cell viability assay.

GI-1 = format: functional, cell-based, Homo sapiens; conditions: Homo sapiens, GI-1;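 note: growth inhibition of human GI-1 cells, measured with a cell viability readout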
Description: SANGER: Inhibition of human GI-1 cell growth in a cell viability assay.

GOTO = format: functional, cell-based, Homo sapiens; conditions: Homo sapiens, GOTO;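 note: growth inhibition of GOTO cells, read out by a cell viability assay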
Description: SANGER: Inhibition of human GOTO cell growth in a cell viability assay.

SHP77 = format: functional, cell-based, Homo sapiens, SHP-77; conditions: Homo sapiens, SHP77;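 note: growth inhibition of human SHP-77 cells measured by a cell viability assay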
Description: SANGER: Inhibition of human SHP-77 cell growth in a cell viability assay.

NCI-H209 = format: functional, cell-based, Homo sapiens; conditions: Homo sapiens, NCI-H209;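 note: growth inhibition of human NCI-H209 cells, measured by a cell viability assay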
Description: SANGER: Inhibition of human NCI-H209 cell growth in a cell viability assay.

DMS-114 = format: functional, cell-based, Homo sapiens; conditions: Homo sapiens, DMS-114
U-266 = format: functional, cell-based, Homo sapiens; conditions: Homo sapiens, U-266
Description: SANGER: Inhibition of human U-266 cell growth in a cell viability assay.

NH-12 = format: functional, cell-based, Homo sapiens; conditions: Homo sapiens, NH-12;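 note: growth inhibition of NH-12 cells, read out with a cell viability assay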
Description: SANGER: Inhibition of human NH-12 cell growth in a cell viability assay.

EW-1 = format: functional, cell-based, Homo sapiens; conditions: Homo sapiens, EW-1
Description: SANGER: Inhibition of human EW-1 cell growth in a cell viability assay.

DEL = format: functional, cell-based, Homo sapiens; conditions: Homo sapiens, DEL;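 note: growth inhibition of the human DEL cell line, read out with a cell viability assay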
Description: SANGER: Inhibition of human DEL cell growth in a cell viability assay.

DSH1 = format: functional, cell-based, Homo sapiens; conditions: Homo sapiens, DSH1;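 note: growth inhibition of human DSH1 cells, measured with a cell viability readout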
Description: SANGER: Inhibition of human DSH1 cell growth in a cell viability assay.

A498 = format: functional, cell-based, Homo sapiens; conditions: Homo sapiens, A498;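 note: growth inhibition of human A498 cells, read out with a cell viability assay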
Description: SANGER: Inhibition of human A498 cell growth in a cell viability assay.

A3-KAW = format: functional, cell-based, Homo sapiens; conditions: Homo sapiens, A3-KAW;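 note: growth inhibition of human A3-KAW cells, read out with a cell viability assay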
Description: SANGER: Inhibition of human A3-KAW cell growth in a cell viability assay.

HCE-T = format: functional, cell-based, Homo sapiens; conditions: Homo sapiens, HCE-T;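 note: cell viability assay read-out, reporting inhibition of HCE-T cell growth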
Description: SANGER: Inhibition of human HCE-T cell growth in a cell viability assay.

NCI-H1650 = format: functional, cell-based, Homo sapiens; conditions: Homo sapiens, NCI-H1650;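 note: growth inhibition of human NCI-H1650 cells measured by a cell viability assay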
Description: SANGER: Inhibition of human NCI-H1650 cell growth in a cell viability assay.

KINGS-1 = format: functional, cell-based, Homo sapiens; conditions: Homo sapiens, KINGS-1;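 note: cell viability assay measuring suppression of KINGS-1 cell growth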
Description: SANGER: Inhibition of human KINGS-1 cell growth in a cell viability assay.

LOX IMVI = format: functional, cell-based, Homo sapiens; conditions: Homo sapiens, LOX IMVI
Description: SANGER: Inhibition of human LOXIMVI cell growth in a cell viability assay.

EW-13 = format: functional, cell-based, Homo sapiens; conditions: Homo sapiens, EW-13;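 note: growth inhibition of EW-13 cells, read out with a cell viability assay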
Description: SANGER: Inhibition of human EW-13 cell growth in a cell viability assay.

Lu-65 = format: functional, cell-based, Homo sapiens; conditions: Homo sapiens, Lu-65;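 note: growth inhibition of Lu-65 cancer cells, read out by a cell viability assay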
Description: SANGER: Inhibition of human LU-65 cell growth in a cell viability assay.

GB-1 = format: functional, cell-based, Homo sapiens; conditions: Homo sapiens, GB-1;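 note: growth of GB-1 cells judged by a viability assay, IC50 marks the concentration inhibiting growth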
Description: SANGER: Inhibition of human GB-1 cell growth in a cell viability assay.

NCI-H82 = format: functional, cell-based, Homo sapiens; conditions: Homo sapiens, NCI-H82;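 note: growth inhibition of NCI-H82 cells, measured with a cell viability readout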
Description: SANGER: Inhibition of human NCI-H82 cell growth in a cell viability assay.

KP-N-YS = format: functional, cell-based, Homo sapiens; conditions: Homo sapiens, KP-N-YS;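 note: cell viability assay measuring inhibition of cell line growth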
Description: SANGER: Inhibition of human KP-N-YS cell growth in a cell viability assay.

OVCAR-4 = format: functional, cell-based, Homo sapiens; conditions: Homo sapiens, OVCAR-4;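 note: growth inhibition of human OVCAR-4 cells, measured with a cell viability assay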
Description: SANGER: Inhibition of human OVCAR-4 cell growth in a cell viability assay.

GR-ST = format: functional, cell-based, Homo sapiens; conditions: Homo sapiens, GR-ST
Description: SANGER: Inhibition of human GR-ST cell growth in a cell viability assay.

no-10 = format: functional, cell-based, Homo sapiens; conditions: Homo sapiens;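 note: growth inhibition of no-10 cells, read out with a cell viability assay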
Description: SANGER: Inhibition of human no-10 cell growth in a cell viability assay.

TE-1 = format: functional, cell-based, Homo sapiens; conditions: Homo sapiens, TE-1;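 note: growth inhibition of the human TE-1 cell line, read out with a cell viability assay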
Description: SANGER: Inhibition of human TE-1 cell growth in a cell viability assay.

OCI-AML2 = format: functional, cell-based, Homo sapiens; conditions: Homo sapiens, OCI-AML2;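 note: growth inhibition of OCI-AML2 cells, read out with a cell viability assay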
Description: SANGER: Inhibition of human OCI-AML2 cell growth in a cell viability assay.

NB13 = format: functional, cell-based, Homo sapiens; conditions: Homo sapiens, NB13;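 note: cell viability readout measuring growth inhibition of human NB13 cells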
Description: SANGER: Inhibition of human NB13 cell growth in a cell viability assay.

TGBC1TKB = format: functional, cell-based, Homo sapiens; conditions: Homo sapiens, TGBC1TKB;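 note: growth inhibition of TGBC1TKB cells, read out by a cell viability assay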
Description: SANGER: Inhibition of human TGBC1TKB cell growth in a cell viability assay.

SK-NEP-1 = format: functional, cell-based, Homo sapiens; conditions: Homo sapiens, SK-NEP-1;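 note: growth inhibition of human SK-NEP-1 cells, read out by a cell viability assay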
Description: SANGER: Inhibition of human SK-NEP-1 cell growth in a cell viability assay.

NCI-H510A = format: functional, cell-based, Homo sapiens; conditions: Homo sapiens, NCI-H510A;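 note: growth inhibition of NCI-H510A cells, read out with a cell viability assay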
Description: SANGER: Inhibition of human NCI-H510A cell growth in a cell viability assay.

CW-2 = format: functional, cell-based, Homo sapiens; conditions: Homo sapiens, CW-2;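 note: growth inhibition of CW-2 cells, read out by a cell viability assay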
Description: SANGER: Inhibition of human CW-2 cell growth in a cell viability assay.

L-428 = format: functional, cell-based, Homo sapiens; conditions: Homo sapiens, L-428
Description: SANGER: Inhibition of human L-428 cell growth in a cell viability assay.

Molecule `Cc1ccc(-c2c(C(=O)CCl)n(CCCO)c3ncnc(N)c23)cc1` has an IC50 (MLMA) greater than 4000 nM, an IC50 (IA-LM) of 3210 nM and an IC50 (KARPAS-45) greater than 4000 nM. The IC50 (GCIY) was greater than 4000 nM, the IC50 (SK-MEL-2) was greater than 4000 nM and the IC50 (LAMA-84) was greater than 4000 nM. It also gave an IC50 (MZ1-PC) of 2920 nM, an IC50 (MN-60) greater than 4000 nM and an IC50 (BB30-HNC) of 1820 nM. It also gave an IC50 (QIMR-WIL) greater than 4000 nM, an IC50 (SF-539) greater than 4000 nM and an IC50 (UACC-257) greater than 4000 nM. The IC50 (KG-1) was greater than 4000 nM, the IC50 (SBC-1) was greater than 4000 nM and the IC50 (DU-4475) was greater than 4000 nM. For the same molecule, the IC50 (Ramos-2G6-4C10) was greater than 4000 nM, the IC50 (GI-1) was 2700 nM and the IC50 (GOTO) was greater than 4000 nM. The IC50 (SHP77) was greater than 4000 nM, the IC50 (NCI-H209) was greater than 4000 nM and the IC50 (DMS-114) was greater than 4000 nM. The IC50 (U-266) was greater than 4000 nM, the IC50 (NH-12) was greater than 4000 nM and the IC50 (EW-1) was greater than 4000 nM. For the same molecule, the IC50 (DEL) was greater than 4000 nM, the IC50 (DSH1) was greater than 4000 nM and the IC50 (A498) was greater than 4000 nM. It also gave an IC50 (A3-KAW) greater than 4000 nM, an IC50 (HCE-T) greater than 4000 nM and an IC50 (NCI-H1650) greater than 4000 nM. The IC50 (KINGS-1) was greater than 4000 nM, the IC50 (LOX IMVI) was greater than 4000 nM and the IC50 (EW-13) was greater than 4000 nM. The IC50 (Lu-65) was greater than 4000 nM, the IC50 (GB-1) was greater than 4000 nM and the IC50 (NCI-H82) was greater than 4000 nM. For the same molecule, the IC50 (KP-N-YS) was greater than 4000 nM, the IC50 (OVCAR-4) was greater than 4000 nM and the IC50 (GR-ST) was greater than 4000 nM. For the same molecule, the IC50 (no-10) was greater than 4000 nM, the IC50 (TE-1) was greater than 4000 nM and the IC50 (OCI-AML2) was greater than 4000 nM. It also gave an IC50 (NB13) of 978 nM, an IC50 (TGBC1TKB) greater than 4000 nM and an IC50 (SK-NEP-1) greater than 4000 nM. For the same molecule, the IC50 (NCI-H510A) was greater than 4000 nM, the IC50 (CW-2) was greater than 4000 nM and the IC50 (L-428) was greater than 4000 nM.
Molecule `CC(=O)O[C@H]1C(=O)[C@@]2(C)[C@H]([C@H](OC(=O)c3ccccc3)[C@]3(O)C[C@H](OC(=O)[C@H](O)[C@@H](NC(=O)c4ccccc4)c4ccccc4)C(C)=C1C3(C)C)[C@]1(OC(C)=O)CO[C@@H]1C[C@@H]2O` [PACLITAXEL] has an IC50 (MLMA) of 74.6 nM, an IC50 (IA-LM) of 2.8 nM and an IC50 (KARPAS-45) of 12.7 nM. For the same molecule, the IC50 (GCIY) was greater than 102 nM, the IC50 (SK-MEL-2) was greater than 102 nM and the IC50 (LAMA-84) was greater than 102 nM. The IC50 (MZ1-PC) was 0.729 nM, the IC50 (MN-60) was greater than 102 nM and the IC50 (BB30-HNC) was 3.14 nM. For the same molecule, the IC50 (QIMR-WIL) was 10.3 nM, the IC50 (SF-539) was 24 nM and the IC50 (UACC-257) was 48.5 nM. It also gave an IC50 (KG-1) greater than 102 nM, an IC50 (SBC-1) of 50.4 nM and an IC50 (DU-4475) of 42.4 nM. For the same molecule, the IC50 (Ramos-2G6-4C10) was greater than 102 nM, the IC50 (GI-1) was 13.7 nM and the IC50 (GOTO) was greater than 102 nM. It also gave an IC50 (SHP77) greater than 102 nM, an IC50 (NCI-H209) of 97.9 nM and an IC50 (DMS-114) of 25 nM. For the same molecule, the IC50 (U-266) was greater than 102 nM, the IC50 (NH-12) was greater than 102 nM and the IC50 (EW-1) was 3.71 nM. It also gave an IC50 (DEL) of 8.45 nM, an IC50 (DSH1) greater than 102 nM and an IC50 (A498) greater than 102 nM. It also gave an IC50 (A3-KAW) of 73.5 nM, an IC50 (HCE-T) of 20.9 nM and an IC50 (NCI-H1650) greater than 102 nM. It also gave an IC50 (KINGS-1) of 23.6 nM, an IC50 (LOX IMVI) of 70.3 nM and an IC50 (EW-13) greater than 102 nM. For the same molecule, the IC50 (Lu-65) was greater than 102 nM, the IC50 (GB-1) was 36 nM and the IC50 (NCI-H82) was 43.1 nM. It also gave an IC50 (KP-N-YS) greater than 102 nM, an IC50 (OVCAR-4) of 9.04 nM and an IC50 (GR-ST) of 56.2 nM. The IC50 (no-10) was 3.62 nM, the IC50 (TE-1) was 6.06 nM and the IC50 (OCI-AML2) was 8.52 nM. It also gave an IC50 (NB13) of 4.91 nM, an IC50 (TGBC1TKB) of 17.5 nM and an IC50 (SK-NEP-1) of 86.4 nM. The IC50 (NCI-H510A) was 6.65 nM, the IC50 (CW-2) was greater than 102 nM and the IC50 (L-428) was greater than 102 nM.
